Experiments:
FAP [1] = target: T1, FAP (Homo sapiens, UniProt Q12884); experiment: Affinity to FAP (IC50); format: biochemical; conditions: for affinity to FAP, in words: compared with reference (F) and gold standard (G); for selectivity for FAP over PREP, in words: relative to (G) UAMC1110; for S = PREP IC50/FAP IC50: selectivity FAP over PREP; for SF = S relative to UAMC1110: selectivity factor relative to UAMC1110
T1 sequence (Q12884 1-760): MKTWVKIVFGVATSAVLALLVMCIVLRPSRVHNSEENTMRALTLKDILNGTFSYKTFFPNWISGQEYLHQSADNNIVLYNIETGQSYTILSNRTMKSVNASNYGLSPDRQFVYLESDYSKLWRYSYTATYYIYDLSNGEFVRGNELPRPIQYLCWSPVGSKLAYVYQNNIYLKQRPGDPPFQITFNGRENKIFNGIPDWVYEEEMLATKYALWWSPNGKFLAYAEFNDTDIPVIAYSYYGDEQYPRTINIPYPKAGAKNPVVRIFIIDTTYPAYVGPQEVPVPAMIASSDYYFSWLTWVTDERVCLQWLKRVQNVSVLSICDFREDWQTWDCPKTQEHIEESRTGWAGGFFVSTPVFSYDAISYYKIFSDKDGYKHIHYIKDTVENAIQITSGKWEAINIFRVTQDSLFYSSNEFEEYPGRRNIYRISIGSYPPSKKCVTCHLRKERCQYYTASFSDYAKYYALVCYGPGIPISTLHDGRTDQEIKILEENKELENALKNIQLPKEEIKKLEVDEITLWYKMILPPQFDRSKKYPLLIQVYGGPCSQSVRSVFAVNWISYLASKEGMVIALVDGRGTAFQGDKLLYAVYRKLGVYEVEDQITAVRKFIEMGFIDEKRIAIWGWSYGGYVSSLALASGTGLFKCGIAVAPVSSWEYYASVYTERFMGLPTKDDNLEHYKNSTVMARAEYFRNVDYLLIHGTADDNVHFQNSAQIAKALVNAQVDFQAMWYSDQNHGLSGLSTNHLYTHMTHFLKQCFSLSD

PREP = target: T2, PREP (Homo sapiens, UniProt P48147); experiment: Affinity to PREP (IC50); format: biochemical; conditions: for binding to off-target PREP, in words: compared with reference (F) and (G)
T2 sequence (P48147 1-710): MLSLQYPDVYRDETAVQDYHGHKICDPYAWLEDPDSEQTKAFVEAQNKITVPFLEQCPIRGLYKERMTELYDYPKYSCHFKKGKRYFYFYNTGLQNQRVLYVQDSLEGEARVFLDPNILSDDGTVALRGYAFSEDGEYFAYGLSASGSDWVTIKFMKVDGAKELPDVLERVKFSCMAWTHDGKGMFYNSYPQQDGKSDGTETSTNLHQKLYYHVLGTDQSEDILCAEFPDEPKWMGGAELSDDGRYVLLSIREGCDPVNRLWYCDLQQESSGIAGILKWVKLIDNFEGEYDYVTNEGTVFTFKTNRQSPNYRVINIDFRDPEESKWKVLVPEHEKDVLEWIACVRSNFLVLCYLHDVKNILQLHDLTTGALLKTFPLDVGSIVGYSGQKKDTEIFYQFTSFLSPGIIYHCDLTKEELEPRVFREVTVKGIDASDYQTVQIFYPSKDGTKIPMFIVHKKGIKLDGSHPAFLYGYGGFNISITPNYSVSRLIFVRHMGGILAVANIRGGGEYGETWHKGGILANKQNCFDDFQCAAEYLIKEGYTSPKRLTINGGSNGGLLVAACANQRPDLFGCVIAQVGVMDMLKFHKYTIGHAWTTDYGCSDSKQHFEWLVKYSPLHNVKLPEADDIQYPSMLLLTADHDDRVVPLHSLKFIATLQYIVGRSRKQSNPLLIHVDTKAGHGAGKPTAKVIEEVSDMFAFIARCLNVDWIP
Description: Beneath Table 1 presents measured affinities to FAP and PREP for the inventive precursor compounds 1-4 and reference compound 5 as well as the original FAP inhibitor UAMC1110 as the current gold standard.

FAP [2] = target: T1, FAP; conditions: background statement; cited from earlier work
DPP4 = DPP4 (Homo sapiens, UniProt P27487); conditions: background statement; cited from earlier work
Sequence of DPP4 (P27487 whole entry): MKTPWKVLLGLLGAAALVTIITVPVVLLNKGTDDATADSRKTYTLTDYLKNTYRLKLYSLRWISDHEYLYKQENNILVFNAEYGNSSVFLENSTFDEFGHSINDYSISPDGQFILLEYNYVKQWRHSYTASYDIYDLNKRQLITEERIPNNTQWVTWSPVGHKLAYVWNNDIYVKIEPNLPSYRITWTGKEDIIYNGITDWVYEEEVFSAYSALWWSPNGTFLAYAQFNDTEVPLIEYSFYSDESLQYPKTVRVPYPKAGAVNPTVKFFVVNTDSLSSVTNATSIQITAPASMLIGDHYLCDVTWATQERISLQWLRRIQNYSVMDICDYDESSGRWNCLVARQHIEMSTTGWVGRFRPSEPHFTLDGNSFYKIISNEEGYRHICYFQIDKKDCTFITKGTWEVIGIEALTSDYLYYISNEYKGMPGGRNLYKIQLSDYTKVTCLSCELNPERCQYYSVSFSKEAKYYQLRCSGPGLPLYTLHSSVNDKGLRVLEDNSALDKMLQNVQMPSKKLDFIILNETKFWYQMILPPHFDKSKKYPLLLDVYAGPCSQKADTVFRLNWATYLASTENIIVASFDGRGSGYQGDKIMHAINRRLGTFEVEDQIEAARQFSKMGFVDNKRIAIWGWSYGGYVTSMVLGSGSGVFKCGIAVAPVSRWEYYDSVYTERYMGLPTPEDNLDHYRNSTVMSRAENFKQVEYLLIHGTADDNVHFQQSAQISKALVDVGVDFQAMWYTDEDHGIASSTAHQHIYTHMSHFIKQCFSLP

Row | Compound | IC50 (FAP [1]) [nM] | selectivity for FAP over PREP, in words (FAP [1]) | S = PREP IC50/FAP IC50 (FAP [1]) | SF = S relative to UAMC1110 (FAP [1]) | IC50 (PREP) [nM] | affinity to FAP, in words (FAP [1]) | binding to off-target PREP, in words (PREP) | FAP affinity (FAP [2]) | DPP4 affinity (DPP4)
1 | CN(CC(=O)O)C1(CCCCC(=O)N[C@H]2CCN(CC(=O)NCCCCOc3ccc4nccc(C(=O)NCC(=O)N5CC(F)(F)C[C@H]5C#N)c4c3)C2)CN(CC(=O)O)CCN(CC(=O)O)C1 [(D), 2,2′-(6-((carboxymethyl)(methyl)amino)-6-(5-(((S)-1-(2-((4-((4-((2-((S)-2-cyano-4,4-difluoropyrrolidin-1-yl)-2-oxoethyl)carbamoyl)quinolin-6-yl)oxy)butyl)amino)-2-oxoethyl)pyrrolidin-3-yl)amino)-5-oxopentyl)-1,4-diazepane-1,4-diyl)diacetic Acid] | 0.28 ± 0.02 | three times higher than that of (G) | 11.8 × 10^3 | 2.8 | 3300 ± 200 | higher affinity to FAP than reference compound (F) and the UAMC1110 gold standard (G) | reduced binding to off-target PREP compared to reference (F) and (G) | – | –
2 | CN(CC(=O)NCCCCOc1ccc2nccc(C(=O)NCC(=O)N3CC(F)(F)C[C@H]3C#N)c2c1)[C@H]1CCN(C(=O)CCCCC2(N(C)CC(=O)O)CN(CC(=O)O)CCN(CC(=O)O)C2)C1 [(E), 2,2′-(6-((carboxymethyl)(methyl)amino)-6-(5-((S)-3-((2-((4-((4-((2-((S)-2-cyano-4,4-difluoropyrrolidin-1-yl)-2-oxoethyl)carbamoyl)quinolin-6-yl)oxy)butyl)amino)-2-oxoethyl)(methyl)amino)pyrrolidin-1-yl)-5-oxopentyl)-1,4-diazepane-1,4-diyl)diacetic Acid] | 0.31 ± 0.02 | twice that of (G) | 8.4 × 10^3 | 2.0 | 2600 ± 300 | higher affinity to FAP than reference compound (F) and the UAMC1110 gold standard (G) | reduced binding to off-target PREP compared to reference (F) and (G) | – | –
3 | N#C[C@@H]1CC(F)(F)CN1C(=O)CNC(=O)c1ccnc2ccccc12 [(G), (S)-N-(2-(2-cyano-4,4-difluoropyrrolidin-1-yl)-2-oxoethyl)quinoline-4-carboxamide] | – | – | – | – | – | – | – | low nM range | μM range

Further compounds by falling IC50 (FAP [1]), results first:

Row | IC50 (FAP [1]) [nM] | selectivity for FAP over PREP, in words (FAP [1]) | S = PREP IC50/FAP IC50 (FAP [1]) | SF = S relative to UAMC1110 (FAP [1]) | IC50 (PREP) [nM] | Compound | affinity to FAP, in words (FAP [1]) | binding to off-target PREP, in words (PREP) | FAP affinity (FAP [2]) | DPP4 affinity (DPP4)
4 | 0.27 ± 0.02 | six times that of (G) | 23.7 × 10^3 | 5.6 | 6400 ± 400 | CN(CC(=O)O)C1(CCCCC(=O)NCCCCOc2ccc3nccc(C(=O)NCC(=O)N4CC(F)(F)C[C@H]4C#N)c3c2)CN(CC(=O)O)CCN(CC(=O)O)C1 [Compound (A), (S)-2,2′-(6-((carboxymethyl)(methyl)amino)-6-(5-((4-((4-((2-(2-cyano-4,4-difluoropyrrolidin-1-yl)-2-oxoethyl)carbamoyl)quinolin-6-yl)oxy)butyl)amino)-5-oxopentyl)-1,4-diazepane-1,4-diyl)diacetic Acid] | higher affinity to FAP than reference compound (F) and the UAMC1110 gold standard (G) | reduced binding to off-target PREP compared to reference (F) and (G) | – | –
5 | 0.27 ± 0.01 | – | 5.6 × 10^3 | 1.3 | 1500 ± 300 | CN(CC(=O)O)C1(CCCCC(=O)N2CCN(CC(=O)NCCCCOc3ccc4nccc(C(=O)NCC(=O)N5CC(F)(F)C[C@H]5C#N)c4c3)CC2)CN(CC(=O)O)CCN(CC(=O)O)C1 [Compound (B), (S)-2,2′-(6-((carboxymethyl)(methyl)amino)-6-(5-(4-(2-((4-((4-((2-(2-cyano-4,4-difluoropyrrolidin-1-yl)-2-oxoethyl)carbamoyl)quinolin-6-yl)oxy)butyl)amino)-2-oxoethyl)piperazin-1-yl)-5-oxopentyl)-1,4-diazepane-1,4-diyl)diacetic Acid] | higher affinity to FAP than reference compound (F) and the UAMC1110 gold standard (G) | comparable to (F) and (G) | – | –

— patent US20250375540A1, “FIBROBLAST ACTIVATION PROTEIN TARGETING PRECURSOR AND RADIOTRACER” (ITM ONCOLOGICS GMBH, priority 2022, published 2025)
